Data reported in PubChem BioAssay (NCI).
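Each compound was tested at five concentrations against cells in 96-well plates for 48 hours. TGI is the concentration that stops growth completely.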

Experiments:
Assay in all cases: growth of human tumour cells (NCI), 48 h
[1] = test system: BT-549 breast
[2] = test system: CCRF-CEM leukemia
[3] = test system: SN12C renal
[4] = test system: IGROV1 ovarian
[5] = test system: RPMI-8226 leukemia
[6] = test system: SK-OV-3 ovarian
[7] = test system: M14 melanoma
[8] = test system: PC-3 prostate
[9] = test system: OVCAR-3 ovarian
[10] = test system: 786-0 renal
[11] = test system: OVCAR-5 ovarian
[12] = test system: UACC-62 melanoma
[13] = test system: KM12 colon
[14] = test system: COLO 205 colon
[15] = test system: SF-295 CNS
[16] = test system: SR leukemia
[17] = test system: UACC-257 melanoma
[18] = test system: SK-MEL-5 melanoma
[19] = test system: RXF 393 renal
[20] = test system: NCI-H23 lung
[21] = test system: NCI-H226 lung
[22] = test system: SF-539 CNS
[23] = test system: OVCAR-8 ovarian
[24] = test system: K-562 leukemia
[25] = test system: HCT-15 colon
[26] = test system: HCT-116 colon
[27] = test system: HS 578T breast
[28] = test system: HOP-92 NSCLC
[29] = test system: MCF7 breast
[30] = test system: EKVX NSCLC
[31] = test system: U251 CNS
[32] = test system: HL-60(TB) leukemia
[33] = test system: MOLT-4 leukemia
[34] = test system: HT29 colon
[35] = test system: ACHN renal
[36] = test system: MDA-MB-435
[37] = test system: TK-10 renal
[38] = test system: SK-MEL-2 melanoma
[39] = test system: MALME-3M melanoma
[40] = test system: UO-31 renal
[41] = test system: SF-268 CNS
[42] = test system: SW-620 colon
[43] = test system: NCI-H522 lung
[44] = test system: SNB-19 CNS
[45] = test system: LOX IMVI melanoma
[46] = test system: NCI/ADR-RES ovarian
[47] = test system: OVCAR-4 ovarian
[48] = test system: MDA-N
[49] = test system: SNB-75 CNS
[50] = test system: NCI-H460 lung
[51] = test system: SK-MEL-28 melanoma
[52] = test system: MDA-MB-231 breast
[53] = test system: HCC-2998 colon
[54] = test system: CAKI-1 renal
[55] = test system: A498 renal
[56] = test system: DU-145 prostate
[57] = test system: A549 NSCLC
[58] = test system: T-47D breast

`O=C(CBr)NCCc1c[nH]c2ccccc12` showed a TGI [1] of 3.83 µM, a TGI [2] of 0.552 µM and a TGI [3] of 2.65 µM. The TGI [4] was 4.22 µM, the TGI [5] was 4.31 µM and the TGI [6] was 7.31 µM. For the same compound, the TGI [7] was 3.24 µM, the TGI [8] was 4.03 µM and the TGI [9] was 4.09 µM. It also gave a TGI [10] of 2.74 µM, a TGI [11] of 3.47 µM and a TGI [12] of 3.29 µM. For the same compound, the TGI [13] was 3.85 µM, the TGI [14] was 3.19 µM and the TGI [15] was 28.6 µM. It also gave a TGI [16] of 1 µM, a TGI [17] of 8.54 µM and a TGI [18] of 2.46 µM. For the same compound, the TGI [19] was 2.41 µM, the TGI [20] was 3.19 µM and the TGI [21] was 2.64 µM. The TGI [22] was 3.52 µM, the TGI [23] was > 48.3 µM and the TGI [24] was 8.41 µM. It also gave a TGI [25] of 4.36 µM, a TGI [26] of 3.15 µM and a TGI [27] of 42.2 µM. For the same compound, the TGI [28] was 4.88 µM, the TGI [29] was 4.72 µM and the TGI [30] was 3.72 µM. For the same compound, the TGI [31] was 3.53 µM, the TGI [32] was 3.69 µM and the TGI [33] was 1.92 µM. It also gave a TGI [34] of 3.51 µM, a TGI [35] of 3.2 µM and a TGI [36] of 3.34 µM. For the same compound, the TGI [37] was 3.37 µM, the TGI [38] was 4.16 µM and the TGI [39] was 9.41 µM. It also gave a TGI [40] of 3.2 µM, a TGI [41] of 7.59 µM and a TGI [42] of 7.71 µM. It also gave a TGI [43] of 0.458 µM, a TGI [44] of 20 µM and a TGI [45] of 2.79 µM. It also gave a TGI [46] of 6.96 µM, a TGI [47] of 4 µM and a TGI [48] of 4.44 µM. The TGI [49] was 3.12 µM, the TGI [50] was 15 µM and the TGI [51] was 11.3 µM. It also gave a TGI [52] of 4.49 µM, a TGI [53] of 24.9 µM and a TGI [54] of 1.91 µM. It also gave a TGI [55] of 41.2 µM and a TGI [56] of 4.19 µM.

With `COc1ccc(N2C(=O)C(=O)C3(CCCCC3)C2=O)c(OC)c1OC` the TGI [1] was > 100 µM, the TGI [2] was > 100 µM and the TGI [3] was > 100 µM. For the same compound, the TGI [57] was > 100 µM, the TGI [5] was > 100 µM and the TGI [6] was > 100 µM. The TGI [7] was > 100 µM, the TGI [8] was > 100 µM and the TGI [9] was > 100 µM. The TGI [10] was > 100 µM, the TGI [11] was > 100 µM and the TGI [12] was > 100 µM. For the same compound, the TGI [13] was > 100 µM, the TGI [14] was > 100 µM and the TGI [15] was > 100 µM. The TGI [16] was > 100 µM, the TGI [17] was > 100 µM and the TGI [18] was > 100 µM. For the same compound, the TGI [19] was > 100 µM, the TGI [20] was > 100 µM and the TGI [21] was > 100 µM. For the same compound, the TGI [22] was > 100 µM, the TGI [23] was > 100 µM and the TGI [25] was > 100 µM. For the same compound, the TGI [26] was > 100 µM, the TGI [27] was > 100 µM and the TGI [29] was > 100 µM. The TGI [30] was > 100 µM, the TGI [31] was > 100 µM and the TGI [58] was > 100 µM. The TGI [32] was > 100 µM, the TGI [33] was > 100 µM and the TGI [34] was > 100 µM. The TGI [35] was > 100 µM, the TGI [36] was > 100 µM and the TGI [37] was > 100 µM. For the same compound, the TGI [39] was > 100 µM, the TGI [40] was > 100 µM and the TGI [41] was > 100 µM. For the same compound, the TGI [42] was > 100 µM, the TGI [43] was > 100 µM and the TGI [44] was > 100 µM. For the same compound, the TGI [45] was > 100 µM, the TGI [46] was > 100 µM and the TGI [47] was > 100 µM. For the same compound, the TGI [48] was > 100 µM, the TGI [49] was > 100 µM and the TGI [51] was > 100 µM. For the same compound, the TGI [54] was > 100 µM and the TGI [56] was > 100 µM.
